Patent publication US12486237B2, “Polymorphic form of (-)-cibenzoline succinate” (CELLTRION INC., priority 2020, dated 2025)
“Also recorded” adds a separate entry of the source.

Assays:
Assay type in all cases: physicochemical
[1] = Accelerated storage stability test (48-hour, accelerated aging conditions); conditions: 48-hour storage, AAC 40° C./75% RH
Protocol: For the crystalline and amorphous forms of (−)-cibenzoline succinate prepared according to Examples 1 to 4 above, a 48-hour storage stability test was performed under accelerated aging conditions (AAC; 40° C./75% RH).

[2] = Long-term storage stability at 60° C. evaluated by HT-XRPD, DSC, TGMS and UPLC
Protocol: The high-throughput XRD of the crystalline form was analyzed under the following conditions. • Manufacturer: Bruker, USA • Model: General Area Detector Diffraction System (GADDS) • Measurement temperature: 25° C. (RT) • 2θ measurement range: 1.5 to 41.5° • Exposure time: 90 seconds • Others: Measurement of intensity and geometric parameters with a V A NTEC-500 gas area detector (Bruker, USA) 9. High-Resolution X-Ray Diffraction (XRD) Analysis
Thermogravimetric analysis coupled with mass spectroscopy for the crystalline form was performed under the following conditions. • Manufacturer: Mettler-Toledo GmbH, Switzerland • Model: TGA/DSC 3+ STARe system • Temperature range: 25 to 300° C. • Temperature rise rate: 10° C./min • Mass spectrometer: mass spectrometer Omnistar GSD 301 T2 (Pfeiffer Vacuum GmbH, Germany) 11. Differential Scanning Calorimetry (DSC) Analysis
The calorimetric analysis of the crystalline form was performed by differential scanning calorimetry (DSC) under the following conditions. • Manufacturer: Metter Toredo GmbH, Switzerland • Model: heat flux DSC3+ STARe system • Temperature rise rate: 10° C./min • Temperature range: 25 to 300° C. • N2 flow rate: 50 ml/min. 12. Karl Fischer Titration Analysis
The mass of the crystalline form was measured by ultra-performance liquid chromatography-mass spectrometer (UPLC-MS) under the following conditions. • Manufacturer: Agilent, USA • Model: Agilent 1290 • Detector 1: UV detector set at 224 nm • Detector 2: MSD XT in Positive Scan Mode • Measurement temperature: 25° C. (RT) • Column: Agilent Eclipse Plus C18 HD (50×2.1 mm; 1.8 μm) • Column temperature: 35° C. • Flow cell: 10 mm path • Gradient: Mobile phase A: 10 mM Ammonium acetate/Mobile phase B: Acetonitrile • Flow: 0.8 ml/min • Sample concentration: 0.8 mg/ml • Solvent: Water: Acetonitrile (50:50 v/v) • Injection: 1 μl • Retention time: 1.54 min 15. Analysis of Particle Size Distribution (PSD)
Crystalline form 3 of (−)-cibenzoline succinate prepared according to Example 4 was stored at 60° C. for 4 weeks, and then the long-term storage stability thereof was evaluated by HT-XRPD, DSC, TGMS and UPLC analysis.

[3] = Particle size analysis by laser diffraction particle analyzer; conditions: dispersant heptane
Protocol: The particle size of the crystalline form was measured with a laser diffraction particle size analyzer under the following conditions. • Manufacturer: Malvern Instruments Limited, UK • Model: Mastersizer 2000 • Sampler: Hydro 2000 G/S Instrumental Conditions: • Particle reflection index (RI)): 1.52 • Dispersant: heptane • Absorbance: 0.1 • Refractive index of dispersant: 1.39 • Analysis model: general purpose • Sensitivity: enhanced • Absorption limit: 10-15% • Measurement time: 30 seconds (repeated three times per sample) • Agitation speed: 3500 RPM Sample Preparation:
About 150 mg of the sample was dissolved in 20 ml of 0.2% Span 85-containing heptane in a 50 ml beaker. The solution was sonicated for about 10 seconds and placed in a sampler, and when the absorption limit reached 10 to 15%, measurement was performed.
The particle size of crystalline form 3 of (−)-cibenzoline succinate prepared according to Example 4 was measured by a laser diffraction particle analyzer.

[4] = Dynamic vapor sorption (DVS) analysis
Protocol: Dynamic vapor sorption was measured using a vapor sorption analyzer under the following conditions. • Manufacturer: Surface Measurement Systems Ltd, UK • Model: DVS Adventure-I system • Analysis of crystalline form of obtained solid: HT-XRPD Relative Humidity Cycle:
Relative humidity was cycled from 40% to 95% (sorption), from 95% to 0% (desorption) and back to 40% (sorption 2). In each step, the relative humidity was changed to 10% at a constant temperature of 25° C. The weight equilibrium was set to a dm/dt of 0.002%/min.
Dynamic vapor sorption data (water sorption isotherms) were measured by a vapor sorption analyzer.

[5] = default reference value (before storage)

O=C(O)CCC(=O)O.c1ccc(C2(c3ccccc3)C[C@@H]2C2=NCCN2)cc1 [Amorphous, (−)-cibenzoline succinate]
Accelerated storage stability [1]: Unstable - presence of different

O=C(O)CCC(=O)O.c1ccc(C2(c3ccccc3)C[C@@H]2C2=NCCN2)cc1 [Crystalline form 1, (−)-cibenzoline succinate]
Accelerated storage stability [1]: Unstable - presence of different

O=C(O)CCC(=O)O.c1ccc(C2(c3ccccc3)C[C@@H]2C2=NCCN2)cc1 [Crystalline form 2, (−)-cibenzoline succinate]
Accelerated storage stability [1]: Unstable - presence of different

O=C(O)CCC(=O)O.c1ccc(C2(c3ccccc3)C[C@@H]2C2=NCCN2)cc1 [Crystalline form 3, (−)-cibenzoline succinate]
Chemical purity [2, 5]: 100% | DSC [2, 5]: 193.2 °C | TGA mass loss rate [2, 5]: 0.6% | Long-term storage stability (crystalline form and chemical purity) ([2]; stored at 60° C. for 4 weeks): stable without changes in the crystalline form and chemical purity | Chemical purity ([2]; stored at 60° C., week 1): 100% | DSC ([2]; stored at 60° C., week 1): 191.2 °C | TGA mass loss rate ([2]; stored at 60° C., week 1): 0.2% | Chemical purity ([2]; stored at 60° C., week 4): 100% | DSC ([2]; stored at 60° C., week 4): 191.1 °C | TGA mass loss rate ([2]; stored at 60° C., week 4): 0.6% | Accelerated storage stability [1]: Stable - presence of only | Accelerated storage stability ([1]; listed as crystalline form 3): stable | D10 [3]: 8.80 μm | D50 [3]: 30.44 μm | D90 [3]: 60.72 μm | D50 ([3]; listed as crystalline form 3): 30.44 μm | water absorption rate at 80% relative humidity ([4]; 25° C., 80% relative humidity): 0.2% | water absorbed in sorption 2 ([4]; 25° C., relative humidity 0% back to 40%): absorbed almost no water | water absorption rate in the sorption cycle ([4]; 25° C., relative humidity 40% to 95%): up to 0.3% | release of absorbed water in the desorption cycle ([4]; 25° C., relative humidity 95% to 0%): completely released | crystalline form of sample obtained after DVS (HT-XRPD) ([4]; after DVS cycle): maintained in Form D | Hygroscopicity classification (European Pharmacopeia 5.0, 5.11) ([4]; based on water absorption at 80% relative humidity): non-hygroscopic; also recorded: non-hydroscopic

O=C(O)CCC(=O)O.c1ccc(C2(c3ccccc3)C[C@@H]2C2=NCCN2)cc1 [Reference Example, (−)-cibenzoline succinate]
D10 [3]: 17.10 μm | D50 [3]: 127.82 μm | D90 [3]: 307.56 μm
